In paper PMC5668913 (Biochemistry and Biophysics Reports, 2015):

Molecular target: T1, MbRIP1 (type 1 ribosome inactivating protein from Momordica balsamina) (Momordica balsamina, UniProt D9J2T9)
T1 sequence (D9J2T9 1-246): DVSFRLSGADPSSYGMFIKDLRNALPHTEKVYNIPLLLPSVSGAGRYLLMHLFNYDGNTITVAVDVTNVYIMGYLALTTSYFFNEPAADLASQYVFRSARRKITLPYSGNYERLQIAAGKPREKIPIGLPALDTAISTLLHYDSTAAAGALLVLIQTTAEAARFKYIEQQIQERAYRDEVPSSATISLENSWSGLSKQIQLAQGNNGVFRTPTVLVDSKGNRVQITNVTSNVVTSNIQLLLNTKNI
Assay: Binding studies using fluorescence

Kd [µM]	Compound
~5	Nc1ccn([C@@H]2O[C@H](CO)[C@@H](O)[C@H]2O)c(=O)n1 [CYT, cytidine]
~230	Nc1cc[nH]c(=O)n1 [CYS, cytosine]
